{
  "source": "patent US20040057926A1",
  "about": "“Modulation of the immune response through the manipulation of arginine levels” (LSU Medical Center, priority 2002, published 2004)",
  "key": {"Jurkat cells": {"system": "Jurkat cells", "experiment": "CD3ζ chain expression in Jurkat cells on L-arginine depletion or replenishment (Western blot, flow cytometry)", "type": "cell-based", "description": "Next, it was tested whether L-arginine depletion altered the expression of the key elements of the T-cell antigen receptor and IL-2 receptor in Jurkat cells. […] The decreased expression of ζ chain was not due to an overall protein degradation since the expression of GAPDH and CD3ε was virtually unchanged over the same period of time. […] The initial decrease in CD3ζ could be seen as early as 24 hours, but continued up to 7 days in culture as compared to its expression in Jurkat cells cultured in C-RPMI that remains unchanged (data not shown).\nReappearance of CD3ζ chain occurred either by adding L-arginine alone at a concentration of 100 μM (FIGS. 4a, dashed line, and 4b, lane 3), or by replacing the TCM with C-RPMI (FIGS. 4a, solid line, and 4b, lane 4). […] The data discussed is representative of at least five experiments in each case."}, "purified T-cells": {"system": "purified T-cells", "experiment": "CD3ζ and phospho-CD3ζ expression in stimulated purified T-cells (flow cytometry)", "type": "cell-based, human", "description": "Peripheral blood mononuclear cells (PBMC) from normal donors were separated over Ficoll-Paque (Pharmacia Biotech, Uppsala, Sweden). PBMC were enriched over T-cell enrichment columns (R&D Systems, Minneapolis, Minn.). After 10 min. of incubation, the columns were washed and the obtained enriched T-cells were counted and tested for surface markers by flow cytometry. […].\nTissue culture dishes (100 mm) (Corning, N.Y.) were coated overnight at 4° C. with PBS containing 10 μg/ml of anti-CD3 (OKT-3 Ortho Pharmaceutical, Raritan, N.J.) and washed once with cold phosphate buffer saline (PBS). Two million purified T-cells were resuspended in complete RPMI-1640 (RPMI) containing approximately 1140 μM of L-arginine (BioWhittaker, Walkersville, Md.) or in RPMI-1640 without L-arginine (Arg-free-RPMI) (GIBCO, Invitrogen, Grand Island, N.Y.) containing 100 ng/ml of anti-CD28 (Becton Dickinson, San Jose, Calif.) and added to plates. Control media included RPMI without L-glutamine or […]. Unstimulated T-cells were placed in the same culture conditions as controls. […]\nTo determine CD3ζ expression, purified T-cells were incubated for 15 min at 4° C. with anti-CD3-FITC or the isotype control (Beckman-Coulter, Miami, Fla.) at 1 μg of antibody/10^6 cells. […] Fluorescence analysis was done using a Coulter-EPICS flow cytometer (Beckman-Coulter, Miami, Fla.)."}, "CAT-1": {"target": "CAT-1 (Homo sapiens, UniProt P30825)", "sequence (P30825 whole entry)": "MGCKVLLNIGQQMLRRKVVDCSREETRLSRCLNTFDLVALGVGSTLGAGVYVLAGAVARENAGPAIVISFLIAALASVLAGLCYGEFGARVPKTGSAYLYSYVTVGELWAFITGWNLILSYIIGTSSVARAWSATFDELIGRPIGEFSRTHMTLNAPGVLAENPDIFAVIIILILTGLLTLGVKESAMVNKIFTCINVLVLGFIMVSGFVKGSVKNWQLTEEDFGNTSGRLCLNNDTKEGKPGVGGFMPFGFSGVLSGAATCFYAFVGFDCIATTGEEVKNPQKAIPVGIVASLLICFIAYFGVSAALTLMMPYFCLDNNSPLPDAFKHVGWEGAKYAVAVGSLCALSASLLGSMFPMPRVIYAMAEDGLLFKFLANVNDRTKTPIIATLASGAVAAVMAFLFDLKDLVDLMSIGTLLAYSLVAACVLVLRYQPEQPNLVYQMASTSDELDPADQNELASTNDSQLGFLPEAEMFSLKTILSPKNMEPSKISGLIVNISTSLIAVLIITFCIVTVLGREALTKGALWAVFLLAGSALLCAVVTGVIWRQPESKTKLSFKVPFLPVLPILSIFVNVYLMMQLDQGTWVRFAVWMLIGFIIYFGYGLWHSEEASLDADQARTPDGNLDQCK", "details": "read-out: Km for L-Arg; cited from earlier work"}},
  "data": [
    {"molecule": "N=C(N)NCCC[C@H](N)C(=O)O", "note": "[L-arginine]", "values": [
      {"measurement": "L-Arg concentrations that cause the rapid decrease of CD3ζ chain", "setting": "Jurkat cells; Jurkat cells, in vitro", "value": "below 40 μM"},
      {"measurement": "loss of CD3ζ on replenishing L-arginine in the tissue culture medium", "setting": "Jurkat cells; L-arginine alone at 100 μM", "value": "fully reversible"},
      {"measurement": "re-expression of CD3ζ after addition of L-arginine to the culture media", "setting": "purified T-cells; L-arginine 1140 μM, T-cells stimulated in Arg-free-RPMI", "value": "rapid re-expression of CD3ζ"},
      {"measurement": "L-Arg concentrations that impair the re-expression of CD3ζ chain", "setting": "purified T-cells; stimulated T-cells, in vitro", "value": "below 40 μM"},
      {"measurement": "Km", "setting": "CAT-1", "value": 100, "unit": "µM"}
    ]}
  ]
}
